Target: T1, EphA2 (Homo sapiens, UniProt P29317)
T1 construct: Methods: biotinylated extracellular domain (ECD)
Assay: SPR; also receptor activation in cells
Format: binding

T1 sequence (P29317 28-206 limits assumed): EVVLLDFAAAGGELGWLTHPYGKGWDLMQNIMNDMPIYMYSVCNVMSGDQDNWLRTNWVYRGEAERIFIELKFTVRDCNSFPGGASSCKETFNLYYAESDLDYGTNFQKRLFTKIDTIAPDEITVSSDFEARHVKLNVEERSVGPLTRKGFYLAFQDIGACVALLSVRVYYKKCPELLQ

`COc1cc2nc(N3CCN(C(=O)C4COc5ccccc5O4)CC3)nc(N)c2cc1OC` (stereo not shown) [compound 11, doxazosin] showed a Kd of 47.6 µM.
